Results: PubChem BioAssay AID1159560 (GlaxoSmithKline (GSK), 2015)
The source made the active and inactive calls. The rule behind the calls is not given here.

The compounds below were run on Leishmania donovani growth inhibition (assay: Leishmania donovani growth inhibition (AID 1159560);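 note: parasites exposed to compound for 72 h before the viability read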).

SMILES	IC50
CCCn1c(NC(=O)CCn2cc(Br)cn2)nc2ccccc21	10 µM
O=C(CSc1nnc(-c2ccc3c(c2)OCO3)o1)N(Cc1ccco1)CC(F)(F)F	16 µM
CC(c1ccc2c(c1)CCCC2)N(C)c1ncc2c(N)nc(N)nc2n1 (centres undefined)	2.5 µM
Nc1nonc1-c1nc2cncc(C(=O)N3CC[C@H](N)C3)c2n1CC1CC1	> 50 µM (inactive)
O=C(Nc1nc(-c2ccccn2)cs1)c1ccc(S(=O)(=O)N2CCCCC2)cc1	0.63 µM
CNC(=O)Oc1ccc(C(=O)NCc2ccccc2)cc1OC(=O)NC	> 50 µM (inactive)
Cn1nccc1NC(=O)Cn1ccc(-c2ccncc2)n1	> 50 µM (inactive)
O=C(Cc1ccccc1)Nc1ccccc1C(=O)Nc1nccs1	> 50 µM (inactive)
CNS(=O)(=O)c1ccccc1Nc1nc(Nc2cc(C)nn2C)ncc1Cl	0.25 µM
Cc1ccc2ccc(C(Nc3ccccn3)c3cccnc3)c(O)c2n1 (centres undefined)	0.4 µM
Cc1nn(-c2nc3ccccc3[nH]2)c2c1C(c1ccc(O)cc1)CC(=O)N2 (centres undefined)	0.79 µM
O=C(NCc1ccc(-n2cccc2)cc1)c1nc(Cn2ccc([N+](=O)[O-])n2)no1	> 50 µM (inactive)
CCNc1cc(-c2ccccn2)nc(Nc2ccc(OC)cc2)n1	1.6 µM
N#Cc1ccccc1S(=O)(=O)N1CCN(C(=O)CNC(=O)c2ccc3c(c2)OCO3)CC1	0.63 µM
CC(C(=O)Nc1ccc(Br)cc1)N1CCN(c2ccc([N+](=O)[O-])cc2)CC1 (centres undefined)	> 50 µM (inactive)
CCNc1cc(-c2ccccn2)nc(Nc2ccccc2)n1	2.5 µM
CCN(CC)S(=O)(=O)c1ccc(C(=O)Nc2cc(C)nn2-c2nc(C)c(C)c(=O)[nH]2)cc1	0.5 µM
Cc1nc(C(=O)Nc2ccc3c(c2)OCO3)nn1-c1ccc(F)cc1	2 µM
Cc1cc(C#N)c([N+](=O)[O-])cc1Br	25 µM
